Reference: patent publication US20250268248A1 (priority 2022, published 2025)

Legend:
MRSA [1] = assay: MBC determination; assay type: cell-based, methicillin-resistant Staphylococcus aureus (ATCC 43300); conditions: Staphylococcus aureus, read-out: MBC MRSA
From the text: (§1) • Menthol, Guangdong Huaqingyuan Biotechnology Co., Ltd. • Thymol, Guangdong Huaqingyuan Biotechnology Co., Ltd. • Bromoisobutyryl bromide (BiBB), Aldrich • CuBr, Aldrich • N,N,N′,N″,N″-pentamethyldiethylenetriamine (PMDETA), Aldrich • 2-(N,N-dimethylamino)ethyl methacrylate (DMAEMA), Aldrich • Gram-positive 2 bacteria (S. aureus, ATCC 25923), China Center of Industrial Culture, commercially available from Guangdong Huankai Microbial Sci.&Tech. Co., Ltd., Guangdong, China • methicillin-resistant Staphylococcus aureus (ATCC 43300), China Center of Industrial Culture, commercially available from Guangdong Huankai Microbial Sci.&Tech. Co., Ltd., Guangdong, China • Gram-negative bacteria (E. coli, ATCC 43894), China Center of Industrial Culture, commercially available from Guangdong Huankai Microbial Sci.&Tech. Co., Ltd., Guangdong, China.
(§2) The MBC was defined as the lowest concentration of an antibacterial agent that kills bacteria in the planktonic culture. MBC of antibacterial polymers and control were determined against S. aureus and E. coli by the reported method in publication “Antibacterial and Bacterially Antiadhesive Cotton Fabrics Coated by Cationic Fluorinated Polymers. ACS Appl Mater Interfaces 2018, 10 (7), 6124-6136.”

E. coli [2] = assay: MBC determination; assay type: cell-based, E. coli (ATCC 43894); conditions: Escherichia coli, read-out: MBC E. coli
From the text: as §1, §2

S. aureus [3] = assay: MBC determination; assay type: cell-based, S. aureus (ATCC 25923); conditions: Staphylococcus aureus; Table 5
From the text: as §1, §2

MRSA [4] = assay: MIC determination by serial dilution in LB broth; assay type: cell-based, methicillin-resistant Staphylococcus aureus (ATCC 43300); conditions: Staphylococcus aureus, read-out: MIC MRSA
From the text: as §1
MIC (minimum inhibitory concentration) was used as an effective qualitative method of antibacterial ability assessment. MIC of antibacterial polymers were determined against S. aureus and E. coli by a serial dilution method. Bacteria LB agar plates were prepared from glycerol stock. Bacteria were inoculated with LB broth in an inoculation shaker at 200 rpm and 37° C., overnight. […] MIC was determined with no visible growth at 600 nm by spectrophotometer. […]

E. coli [5] = assay: microbe, parasite or virus in culture; assay type: cell-based, E. coli (ATCC 43894); conditions: Escherichia coli, 24 h, read-out: MIC E. coli
From the text: as §1
(§3) MIC (minimum inhibitory concentration) was used as an effective qualitative method of antibacterial ability assessment. MIC of antibacterial polymers were determined against S. aureus and E. coli by a serial dilution method. Bacteria LB agar plates were prepared from glycerol stock. Bacteria were inoculated with LB broth in an inoculation shaker at 200 rpm and 37° C., overnight.

S. aureus [6] = assay: MIC determination by serial dilution in LB broth; assay type: cell-based, S. aureus (ATCC 25923); conditions: Staphylococcus aureus, Table 5, 24 h, 37° C.
From the text: as §1, §3

Cc1ccc(C(C)C)c(O)c1 [Thymol]
250 µg/mL: MBC (MRSA [1]) | MBC (E. coli [2]) | MBC (S. aureus [3]) | MIC (MRSA [4]) | MIC (E. coli [5]) | MIC (S. aureus [6])
